Laboratory results from a melting point compilation (Tetko et al.; mined from patent text by program, amines drawn as free bases though some values may be those of a salt).

Row | melting point | Structure (SMILES)
1 | 138 to 140 °C | CC(=O)SCc1nccc(SCCCSc2ccc3ncc([N+](=O)[O-])n3n2)c1C
2 | 152 to 154 °C | CSc1nc(N)nc2c1ncn2C1C=CC(CO)C1 (centres undefined)
3 | 270 °C | CN=C(NCCCc1nc2cc(C3=NNC(=O)CC3C)ccc2[nH]1)NC(=O)c1ccccc1 (centres undefined)
4 | 169 to 172 °C | COC(=O)c1cc(C#N)cn1CC(=O)c1ccccc1
5 | 181 to 191 °C | N=C(N)N(CCCCCCCCCCC(=O)O)C(=O)c1nc(Cl)c(N)nc1N
6 | 179 to 181 °C | O=C(O)C1CCc2c(c3ccccc3n2C(=O)c2cccc(Cl)c2)C1 (centres undefined)
7 | 220 to 222 °C | CCCS(=O)(=O)c1ccccc1S(=O)(=O)NC(=O)Nc1nc(Cl)cc(OCC)n1
8 | 113 to 115 °C | Cc1ccc(S(=O)(=O)OCC2Cc3cccc(-c4cc(Cl)cc(Cl)c4)c3O2)cc1 (centres undefined)
9 | 135 to 138 °C | Nc1nc(NCCC2=CCCCC2)nc2c1ncn2C1OC(CO)C(O)C1O (centres undefined)
10 | 205 to 206 °C | Nc1nc(-c2cc(Cl)ccc2Cl)nc(N2CC=CC2)n1
11 | 233 to 235 °C | CSc1nc(N)nc(-c2ccccc2)c1-c1ccc(=O)n(C)n1
12 | 114 to 115 °C | CN(CCCNC(=S)c1cc(C(C)(C)C)c(O)c(C(C)(C)C)c1)CCOc1ccc2c(c1)OCO2
13 | 91 to 94 °C | CC(C)(O)Cc1cccc(O)c1
14 | 159 to 161 °C | CC(C)(C)C(=O)OCOC(=O)Cc1ccc(O)cc1
15 | 108 to 109 °C | N#CCCNC(=S)C1=CC(CF)(CF)Oc2ccc(C(F)(F)C(F)(F)F)cc21
16 | 160 to 161 °C | COC(=O)C(C=CC(=O)O)=CNc1ccc(Cl)cc1
17 | 159 to 161 °C | CCCC(=O)c1cnc2c(OC)cccc2c1Nc1ccccc1OC
18 | 127 °C | O=C(c1ccccc1)N1CCc2cc(S(=O)(=O)N3CC(c4ccccc4)NC3=O)ccc21 (centres undefined)
19 | 142 °C | CCOc1nc(N)nc2sc(-c3ccc(F)cc3)cc12
20 | 165 to 168 °C | CN1CCN(c2ccc(S(=O)(=O)Oc3ccc(Cl)cc3)cc2)C1=O
21 | 52 to 56 °C | COc1ccc(C(=C(c2ccccc2)C(F)(F)F)c2ccc(F)cc2)cc1
22 | 245 to 248 °C | CNc1c(F)ccc(-n2cc(C(=O)O)c(=O)c3cc(F)c(NC)c(Cl)c32)c1F
23 | 282 to 284 °C | CCCCn1c(=O)c2c(NC)n[nH]c2n(Cc2ccccc2)c1=O
24 | 200 °C | COc1ccc(CN(C)CC=Cc2ccc(NC(=O)c3cccc4c(=O)c5cccc(OC)c5[nH]c34)cc2)cc1OC

Row | melting point | Structure (SMILES)
25 | 149 to 151 °C | CC(C)(C)OC(=O)N1CC=C(c2ccc3oc(-c4ccc(S(C)(=O)=O)cc4F)nc3c2)CC1
26 | > 300 °C | CCn1c(N)c(C(=O)NC)c(=O)c2ccc(-c3ccc(NS(C)(=O)=O)cc3)nc21
27 | 174 °C | O=c1c2cnc3ccc(Cl)cc3c2on1-c1ccccc1
28 | 164 to 166 °C | Fc1ccc(N2CCN(CCCNc3ccc(-n4ccnc4)cc3)CC2)cc1
29 | 112 to 115 °C | Cc1nnc2c(-c3cccnc3)cccn12
30 | > 260 °C | O=C1c2ccccc2C(=O)c2sc(-c3ccc(F)cc3F)nc21
31 | > 250 °C | N[C@@]1(C(=O)O)C[C@H](NC(=O)Nc2ccc(Cl)cc2)[C@H]2[C@H](C(=O)O)[C@H]21 (relative stereo)
32 | 88 °C | CC(=O)c1cccc2ccc(CC#N)cc12
33 | 160 to 163 °C | NC(CSc1nc(NCc2ccc3c(c2)OCO3)cc(-c2ccccc2)n1)=NO
34 | 75 °C | CCCCCCCCCCCCCCCCOC(=O)CCCCCCCCCCCCCCC
35 | 209 °C | CCOc1ccc2c(c1)n(C1CCOCC1)c(=O)n2Cc1ccc(C(=O)NC(C)(C)C)cc1OC
36 | 161 to 162 °C | COc1cc2c(cc1OCc1ccccc1)CCN(Cc1ccc(C#N)cc1)C2
37 | 90 to 91 °C | Cc1ccc(SCc2c(C(C)C)nc(C(C)C)c(CO)c2-c2ccc(F)cc2)cc1
38 | 185 to 186 °C | COc1cc(OC)c(-c2cccs2)cc1C=CC(=O)c1ccc(S(=O)(=O)Nc2nnn[nH]2)cc1
39 | 34 °C | C=CCC(C(=O)O)c1ccccc1 (centres undefined)
40 | 65 to 70 °C | O=C(Cl)[C@@H]1CCC(=O)N1C(=O)OCc1ccccc1
41 | 192 to 196 °C | NC(=O)NNCc1ccc(OCCc2coc(-c3ccccc3)n2)cc1
42 | 195 °C | CC(=O)N[C@H]1CC[C@H](CCN2CCN(c3nccc4c3OCC4)CC2)CC1
43 | 151 to 152 °C | C[C@H](Oc1ccc(-c2csc(S(N)(=O)=O)c2)cc1)[C@H](O)CCc1cccnc1
44 | 146 to 149 °C | NC(=O)C1CCN(C(=O)CNC(=O)OCc2ccccc2)CC1
45 | 100 to 104 °C | COC(=O)CC(Cc1ccccc1)C(=O)N[C@@H](Cc1ccccc1)C(=O)O (some centres undefined)
46 | 50 to 51 °C | CCCOc1ccc(CO)nc1OCc1ccccc1
47 | 64 to 66 °C | CC=C(C(=O)OC)c1ccccc1CBr
48 | 82 to 84 °C | CCOCc1nc2c(N)nc3cc(OCCNC(=O)OC(C)(C)C)ccc3c2n1CC1COC(C)(C)O1 (centres undefined)

Row | melting point | Structure (SMILES)
49 | 103 to 105 °C | OC(COc1ccc(F)cc1)CN1CCC(O)(c2ccc(Cl)cc2)CC1 (centres undefined)
50 | 234 to 237 °C | CN1C(=O)C(c2cccc(-c3cncnc3)c2)(c2cscn2)N=C1N (centres undefined)
51 | 159 to 160 °C | Cc1ccc(Oc2ccc([N+](=O)[O-])cc2-c2ncon2)c(O)c1
52 | 149 to 151 °C | On1c(-c2ccccc2)csc1=S
53 | 124 to 126 °C | N#Cc1cnn(-c2ccc(Cl)c(Cl)c2Cl)c1Cl
54 | 192 to 194 °C | CC(C)(C)c1ccc(/C=N/OCCCOc2ccc(C(=O)O)c(NC(=O)c3ccc(C(C)(C)C)cc3)c2)cc1
55 | 162 to 163 °C | CSC1=Nc2ccccc2C2=NCC(CBr)N12 (centres undefined)
56 | 141 to 143 °C | c1ccc(-c2nc3c([nH]2)Cc2ccccc2-3)cc1
57 | 170 °C | Cc1cc(O)c([N+](=O)[O-])cc1C(=O)c1c(Cl)cccc1Cl
58 | 57 to 87 °C | CCOC(=O)CC[C@H](NC(=O)c1ccc(CCc2cnc3[nH]c(NC(=O)C(C)(C)C)nc(=O)c3c2)s1)C(=O)OCC
59 | 112 °C | CC(C)CNC(=O)/C=C/c1cccc(Cl)c1
60 | 111 °C | CC(C)CC(NC(c1ccc(-c2ccc(S(C)(=O)=O)cc2)cc1)C(F)(F)F)C(=O)NC(C#N)CC(=O)OCc1ccccc1 (centres undefined)
61 | 112 to 115 °C | CC(C)c1ccc(C(=O)N2CCOCC2)cc1N
62 | 262 to 265 °C | Nc1ccc(C=CC(=O)N2CCc3c([nH]c4ccccc34)C2c2ccc3c(c2)OCO3)cc1 (centres undefined)
63 | 79.5 to 81 °C | CCCCCCCCC(=O)N(C)Cc1ccc(C(=O)O)cc1
64 | 222 to 223 °C | COc1cc(C=C2CCc3c2nc2ccc(Cl)cn2c3=O)cc(OC)c1OC
65 | 180 to 183 °C | Cc1cc(Nc2ccccc2C(=O)O)n(Cc2cccnc2)n1
66 | 149 to 150 °C | c1ccc2c(c1)nc1c3c(onc32)CCC1
67 | 125 to 126 °C | CC(C)(COc1ccc(C(N)=O)cn1)NCc1ccccc1
68 | 93 to 95 °C | CCOP(=O)(CSCCOn1cnc2c(N)ncnc21)OCC
69 | 129 to 131 °C | O=S(=O)(CC1CCCCN1S(=O)(=O)c1ccccc1)c1ccc(Cl)cc1 (centres undefined)
70 | 84 °C | O=C(O)Cc1ccc(OCCNC(=O)C2Cc3ccccc3N2S(=O)(=O)c2ccc(-c3cc(C(F)(F)F)ccc3Cl)cc2)cc1 (centres undefined)
71 | 147 to 148 °C | FC(F)(F)c1cccc(CSc2nnc(-c3ccc4nccn4c3)o2)c1
72 | 314 °C | CCC(C)(C)c1cc(-c2c[nH]c(C=C3SC(N4CCOCC4)=NC3=O)c2)ccc1O

Row | melting point | Structure (SMILES)
73 | 194 to 195 °C | COc1cc(N2C(=O)c3ccccc3C2=O)ccc1-c1ccc(Cl)s1
74 | 171 to 173 °C | N#Cc1ccc(N2CCC(=O)CC2)nc1
75 | 64.3 to 65 °C | CCC(C)COc1ccc(N=Nc2ccc(F)cc2)cc1 (centres undefined)
76 | 159 to 163 °C | COCCOc1cc2nccc(Oc3cccc(O)c3)c2cc1C#N
77 | 207 to 208 °C | C=CCn1c(=O)c2c(nc(/C=C/c3ccc(OC(C)=O)c(OC)c3)n2C)n(CC=C)c1=O
78 | 156 to 157 °C | Cc1ccc(C(=O)Nc2ccc(CN(C)C)c(C(F)(F)F)c2)cc1-c1ccc2cnncc2c1
79 | 108 to 110 °C | O=C1CSCC(=O)C1C(=O)Nc1ccc(Cl)c(C(F)(F)F)c1
80 | > 250 °C | CNC1Oc2cc(Cl)cc(-c3cc(F)ccc3F)c2O1 (centres undefined)
81 | 176 to 179 °C | O=C(NS(=O)(=O)N1CCCCC1)C1=NN(c2ccc(Cl)cc2)C(c2ccccc2)C1 (centres undefined)
82 | 219 to 220 °C | Cc1cc(Br)cnc1CCCCNC1=NS(=O)(=O)N=C1N
83 | 148 to 150 °C | COc1ccccc1COc1ccc(S(=O)(=O)c2ccc(C)nc2Nc2c(C)cc(C)cc2C)cc1
84 | 139 to 142 °C | COC(=C(OC)c1ccccc1OC)c1ccc(N)nn1
85 | 118 to 120 °C | CCc1ccccc1-c1nc(-c2ccc(Cl)cc2)n[nH]1
86 | 125 to 129 °C | O=C1c2ccccc2C(=O)N1CCCCN1CCN(C(c2ccccc2)c2ccccc2)CC1
87 | 165 °C | CCOC(=O)COC1=C(C(=O)Nc2cc(Cl)cc(Cl)c2)SC2=NCCCN21
88 | 234 to 239 °C | Cc1c(F)cc(C(=O)NC(C)C(C)C)cc1-c1ccc(C(=O)NCC(C)(C)C)cc1C(=O)Nc1nccs1 (centres undefined)
89 | 214 to 215 °C | CCc1noc(-c2cn(-c3cccc(O)c3)cn2)n1
90 | 238 to 239 °C | CS(=O)c1ccc(C(=O)O)cc1[N+](=O)[O-] (centres undefined)
91 | 170 to 171 °C | Cc1cnc(CSc2nc3cc(OC(F)(F)C(F)F)ccc3[nH]2)c(Cl)c1N1CCCCC1
92 | 172 to 173 °C | O=C1NCC2CC1c1ccccc12 (centres undefined)
93 | 240 to 242 °C | Oc1ccc(-c2ncc3ncc(-c4cccs4)cc3n2)cc1

Row | Structure (SMILES) | melting point
94 | COC1=CC2=CCC3C4CC(C)C(=O)C4(C)CCC3C2(C)CC1 (centres undefined) | 149 to 167 °C
95 | CCN1CC[C@@H]2CC(=O)c3cc(F)ccc3[C@@H]2C1 (relative stereo) | > 220 °C
96 | CP1(=O)c2ccccc2CN1c1ccccc1 (centres undefined) | 94 to 97 °C
97 | OC1(C#Cc2ccc(-c3ccccn3)cc2)CN2CCC1CC2 (centres undefined) | 205 to 206 °C
98 | Cc1ccc(C)c2c(=O)n(CCCN3CC=C(c4ccc(Cl)cc4)CC3)c(=O)[nH]c12 | 212 to 220 °C
99 | CC(Cl)c1nc2cccnc2[nH]1 (centres undefined) | 132 °C
